# Measurements from BindingDB's records for patent US10428104 (Pfizer Inc., 2019).
# Molecular target: Protein arginine N-methyltransferase 5 (Homo sapiens, UniProt O14744)
# Test: PRMT5 assay
# Experimental: Following dilution, 1 ul was added to an empty 96-well microtiter plate. PRMT5/MEP50 protein complex was combined with H4(1-21) peptide ([…]) in PRMT5 assay buffer (50 mM Tris pH 8.5, 50 mM NaCl, 5 mM MgCl2, 1 mM EDTA, 1 mM TCEP) and 44 ul was added to the microtiter plate containing compound. S-Adenosyl-L-methionine (SAM) was prepared by combining 3H labelled SAM with unlabelled SAM in PRMT5 assay buffer such that the final SAM concentration was 10 uM and the specific activity was 0.2 uCi/ul. The reaction was initiated by adding 5 ul of SAM stock to the microtiter plate. The final reaction conditions were 10 nM PRMT5/MEP50 complex, 200 nM peptide and 1 uM SAM. Following a 25 minute incubation at room temperature, the reaction was stopped with the addition of 100 uL of 20% TCA. The 3H-peptide product was captured using a 96-well filter plate (MSIPN4B, Millipore) and washed 5 times with PBS buffer. Scintillation fluid (100 ul) was added to the dried filter plate and counted in a liquid scintillation counter. IC50 values were determined by fitting the data to the standard 4-parameter dose response equation using Pfizer proprietary software.
# Protein arginine N-methyltransferase 5, sequence (O14744 whole entry): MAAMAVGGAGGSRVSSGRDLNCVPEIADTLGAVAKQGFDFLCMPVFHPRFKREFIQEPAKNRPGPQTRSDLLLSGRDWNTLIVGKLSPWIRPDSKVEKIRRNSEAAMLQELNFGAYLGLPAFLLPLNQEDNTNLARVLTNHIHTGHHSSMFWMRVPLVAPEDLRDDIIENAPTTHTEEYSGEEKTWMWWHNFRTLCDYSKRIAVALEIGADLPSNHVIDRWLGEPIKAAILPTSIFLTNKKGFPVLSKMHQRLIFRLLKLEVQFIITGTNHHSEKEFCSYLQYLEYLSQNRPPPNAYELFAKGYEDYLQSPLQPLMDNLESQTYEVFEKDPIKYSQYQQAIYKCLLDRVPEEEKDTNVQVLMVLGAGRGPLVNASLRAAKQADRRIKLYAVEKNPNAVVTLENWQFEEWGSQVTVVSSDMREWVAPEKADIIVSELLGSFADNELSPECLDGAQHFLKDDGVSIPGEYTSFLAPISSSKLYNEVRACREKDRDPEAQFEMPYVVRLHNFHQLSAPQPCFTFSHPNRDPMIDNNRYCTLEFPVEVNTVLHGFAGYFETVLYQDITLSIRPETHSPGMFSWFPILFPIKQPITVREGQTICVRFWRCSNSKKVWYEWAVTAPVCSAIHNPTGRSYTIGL
row,IC50 [nM],SMILES
1,50,"Cc1ncnc2c1ccn2[C@@H]1O[C@H]([C@H](O)c2cnn(C)c2)[C@@H](O)[C@H]1O [US10428104, Example 50]"
2,14700,"Cc1ncnc2c1ccn2[C@@H]1O[C@H]([C@@H](O)c2cnn(C)c2)[C@@H](O)[C@H]1O [US10428104, Example 51]"
3,150,"Cc1ncnc2c1ccn2[C@@H]1O[C@H]([C@H](O)c2cccc3cc[nH]c23)[C@@H](O)[C@H]1O [US10428104, Example 82]"
